The values below come from article PMC10721329, “Quisinostat is a brain-penetrant radiosensitizer in glioblastoma” (JCI Insight, 2023).

The nature of the data set: Total and unbound QST in plasma and normal brain of non-tumor-bearing mice (equilibrium dialysis, LC-MS/MS). It counts as in vivo, athymic nude mice. Here is the method: Insufficient drug exposure in the brain is a major hurdle in the treatment of brain tumors. […] On the last treatment day, blood and intact brains were harvested 2 hours after dosing with QST (Figure 6E). […] Each brain hemisphere was processed separately to perform matched PK and PD analyses from the same animal. […] For PD analyses, we homogenized entire hemispheres to obtain whole-tissue protein lysates from each mouse and assessed changes in histone H3 acetylation levels using immunoblotting.
Our study therefore emphasizes the importance of implementing a PK-PD–guided approach when evaluating or developing new drugs for GBM. Although PK analyses are now commonly performed in preclinical trials for a variety of different brain tumors, these studies typically measure only the total brain-to-plasma concentration ratio as a measure of drug-brain penetration ([74]–[76]). […] Therefore, we employed an equilibrium dialysis method combined with LC-MS/MS analysis to measure the unbound brain-to-plasma concentration, which represents the pharmacologically active fraction of a drug. A crucial finding in our study was the species-specific differences in QST stability. […] A recent study reported that hydroxamic acids such as QST are common substrates of a family of esterases (carboxylesterases) that are abundantly present in rodent plasma but absent in human plasma ([34], [78]). We confirmed that the addition of BNPP, a specific inhibitor of carboxylesterases, stabilized QST in mouse plasma. Our results therefore highlight a large discrepancy in the metabolic stability between rodent and human species. This is an important consideration for translating preclinical studies to the clinic because such differences may hinder further clinical development of promising drug candidates. Our data will thereby serve as a valuable resource and note of caution for future preclinical studies employing QST or similar drugs with species-specific stability.
QST concentrations in specimens were measured using reverse-phase LC on the AB SCIEX QTRAP6500+ LC-MS/MS system by operating electrospray in the positive ion mode. For liquid chromatographic separation, gradient elution was performed using a Phenomenex Kinetex F5 100 Å column (100 × 2.1 mm, 2.6 μm). The initial composition of the mobile phase was 70% phase A (0.1% formic acid in water) and 30% phase B (0.1% formic acid in 1:1 acetonitrile/methanol) with a 0.35 mL/min flow rate. Gradient elution was achieved as follows: mobile phase (B) was maintained at 30% from 0 to 0.3 minutes, increased to 95% from 0.3 to 0.8 minutes, maintained at 95% from 0.8 to 2.5 minutes, and decreased to 30% from 2.5 to 2.8 minutes. The total run time was 3.5 minutes. The internal standard used in this study was D8-infigratinib. The retention times for QST and D8-infigratinib were 1.6 and 1.8 minutes, respectively. Mass-to-charge ratio transitions were as follows: 395.20 → 144.00 (QST) and 568.08 → 321.00 (D8-infigratinib). LC-MS/MS analysis was performed using an Analyst 1.7 Chromatographic Data System. See Supplemental Methods for detailed PK experiments. […]
vortex-mixed for 10 s and centrifuged at 12000 g at 4 °C for 10 min. A 100-µL aliquot of the supernatant was transferred to an autosampler vial, and 5 µL was injected into the LC-MS/MS system for analysis. Whenever necessary, appropriate dilutions were made to accommodate the analysis of small volume samples.
Brain and Brain Tumor Sample Preparation
Normal brain and brain tumor tissue homogenates were prepared by 1:4 (mass/volume) ratio with PBS. Samples were homogenized under 6.00 m/s speed for 40 seconds with 3 cycles by Bead Ruptor Elite homogenizer (Omni International). Plasma was used as a surrogate matrix for brain/tumor homogenate. Brain homogenate samples from in vivo studies were prepared as described for plasma samples. Analyte and IS were extracted by protein precipitation with methanol containing IS. After centrifugation at 12000 rpm for 10 minutes at 4 °C, 5 µL of […]
On the technique in general: In equilibrium dialysis free small molecules cross a membrane that holds back macromolecules.

[1] abbreviates: normal mice, individual mice, n=6.

Several values for one entry are separate records, joined by “and”; a condition that tells them apart may be missing. Equal values may be shown once. Read-outs that look alike come from different tables or passages of the source.

As to `Cn1cc(CNCC2CCN(c3ncc(C(=O)NO)cn3)CC2)c2ccccc21` [QST, quisinostat], under “10 mg/kg IP MWF 2 weeks, 2 hours after last dose”, the “mean unbound QST level, fold lower in brain than in plasma” value is listed as “more than 70 fold”. For the same compound, the concentration at 2 h was 45.3 nM (athymic nude, mouse, brain, intraperitoneal, 10 mg/kg, normal mouse brains, individual mice, n=6, read-out: Total QST, brain); 1.65 nM (athymic nude, mouse, brain, intraperitoneal, 10 mg/kg, normal mouse brains, individual mice, n=6, read-out: Unbound QST, brain); about 1.7 nM (athymic nude, mouse, brain, ip, 10 mg/kg, normal brain, 10 mg/kg IP MWF 2 weeks, 2 hours after last dose, read-out: unbound drug concentration in the brain); 26.24 nM and 32.91 nM and 41.935 nM and 27.27 nM and 31.45 nM (normal mouse brains, individual mice, n=6, read-out: Total QST, brain); 2.1 nM and 1.36 nM and 1.57 nM and 2.27 nM and 1.31 nM (normal mouse brains, individual mice, n=6, read-out: Unbound QST, brain). Under setting [1], the “Total QST, plasma” value was 464.014 nM and 281.833 nM and 297.864 nM and 455.378 nM and 301.853 nM and 226.232 nM. In addition, under setting [1], the “UNBOUND [QST], Plasma” value is 117.95 nM and 180.33 nM and 119.53 nM and 89.59 nM and 183.75 nM and 111.61 nM.
